# From ChEMBL document CHEMBL5154655, “Identification of indole-based activators of insulin degrading enzyme” (Eur J Med Chem, 2022)
# How the values were obtained:
# [1] = Solubility of the compound at 100 uM; format: physicochemical
# [2] = Dissociation constant, pKa of the compound; format: physicochemical
# [3] = Lipophilicity, logD of the compound in 1-octanol and phosphate buffer at pH 7.4 incubated for 2 hrs under shaking condition by LC-MS/MS analysis; format: physicochemical; conditions: 1-octanol/phosphate buffer
# [4] = Aqueous thermodynamic solubility of the compound in phosphate buffer/MeOH at pH 7.4 measured after 24 hrs by LC-MS/MS analysis; format: physicochemical; conditions: read-out: Therm_solubility
# [5] = Stability in rat plasma assessed as half life at 10 uM; format: ADME, cell-free
# Insulin-degrading enzyme = target: T1, Insulin-degrading enzyme (Homo sapiens, UniProt P14735); assay: Activation of human recombinant IDE using ATTO 655-Cys-Lys-Leu-Val-Phe-Phe-Ala-Glu-Asp-trp as substrate incubated for 10 mins followed by substrate addition and measured after 20 mins by fluorescence spectrophotometer analysis
# T1 sequence (P14735 whole entry): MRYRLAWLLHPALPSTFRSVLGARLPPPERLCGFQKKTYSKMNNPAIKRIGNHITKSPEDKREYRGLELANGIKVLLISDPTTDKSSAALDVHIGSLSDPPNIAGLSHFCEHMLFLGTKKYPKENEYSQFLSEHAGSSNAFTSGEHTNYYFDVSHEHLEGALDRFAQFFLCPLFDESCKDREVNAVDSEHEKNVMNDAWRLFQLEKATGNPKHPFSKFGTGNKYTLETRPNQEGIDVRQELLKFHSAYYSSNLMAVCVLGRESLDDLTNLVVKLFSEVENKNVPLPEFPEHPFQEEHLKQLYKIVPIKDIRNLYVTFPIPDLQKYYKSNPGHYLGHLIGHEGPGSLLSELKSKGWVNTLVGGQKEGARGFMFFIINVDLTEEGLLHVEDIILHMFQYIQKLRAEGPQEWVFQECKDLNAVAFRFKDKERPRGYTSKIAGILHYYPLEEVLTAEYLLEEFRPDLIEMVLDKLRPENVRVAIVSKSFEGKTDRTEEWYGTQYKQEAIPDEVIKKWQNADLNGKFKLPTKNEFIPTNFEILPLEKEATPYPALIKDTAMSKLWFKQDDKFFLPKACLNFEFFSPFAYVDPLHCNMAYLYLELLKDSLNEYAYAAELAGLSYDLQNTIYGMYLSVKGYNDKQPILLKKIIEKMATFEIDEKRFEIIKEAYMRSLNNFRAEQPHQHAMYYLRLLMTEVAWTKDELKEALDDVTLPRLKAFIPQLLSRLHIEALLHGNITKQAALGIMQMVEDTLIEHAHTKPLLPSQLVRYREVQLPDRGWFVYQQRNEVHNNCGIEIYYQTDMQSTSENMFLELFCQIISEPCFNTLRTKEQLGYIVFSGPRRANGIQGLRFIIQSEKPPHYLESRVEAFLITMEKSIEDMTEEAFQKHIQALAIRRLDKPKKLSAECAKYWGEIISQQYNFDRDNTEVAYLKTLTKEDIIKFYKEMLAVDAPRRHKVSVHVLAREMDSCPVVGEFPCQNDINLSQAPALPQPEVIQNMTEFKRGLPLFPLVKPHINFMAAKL
# [6] = Solubility of the compound at 15 uM; format: physicochemical
Structure (SMILES),solubility [1],EC50 (Insulin-degrading enzyme),also measured
O=C(CCCc1cn(C(=O)c2ccc(Cl)cc2)c2ccccc12)NCCCn1ccnc1,Insoluble,,
O=C(CCCc1cn(S(=O)(=O)c2ccccc2)c2ccccc12)NCCCN1CCCC1,,,pKa [2]: 8.8
O=C(CCCc1cn(S(=O)(=O)c2cccs2)c2ccccc12)NCCCn1ccnc1,,,logD at 2 h [3]: 2.7; solubility thermodynamic at 24 h [4]: 8.9 µM; half-life at 10 µM [5]: > 24 h
Cn1cnc(S(=O)(=O)n2cc(CCCC(=O)NCCCn3ccnc3)c3ccccc32)c1,,28.8 µM,
O=C(CCCc1cn(C(=O)c2ccc(F)cc2)c2ccccc12)NCCCn1ccnc1,Insoluble,,
O=C(CCCc1cn(-c2ccccc2)c2ccccc12)NCCCn1ccnc1,Insoluble,,
O=C(NCCCn1ccnc1)c1cn(S(=O)(=O)c2ccccc2)c2ccccc12,Insoluble,,
O=C(CCCc1cn(C(=O)c2cccs2)c2ccccc12)NCCCn1ccnc1,,21.4 µM,
CN(CCCn1ccnc1)C(=O)CCCc1cn(S(=O)(=O)c2ccccc2)c2ccccc12,,14.1 µM,
O=C(CCCc1nn(S(=O)(=O)c2ccccc2)c2ccccc12)NCCCn1ccnc1,,12.3 µM,
O=C(CCCc1cn(S(=O)(=O)c2ccccc2)c2ccccc12)NCCCn1ccnc1,,13.2 µM,logD at 2 h [3]: 2.7; pKa [2]: 6.9; solubility [6]: Soluble
O=C(CCCCc1cn(S(=O)(=O)c2ccccc2)c2ccccc12)NCCCn1ccnc1,Insoluble,,
O=C(CCCc1cn(S(=O)(=O)c2ccsc2)c2ccccc12)NCCCn1ccnc1,,13.8 µM,
O=C(CCCc1cn(S(=O)(=O)c2cccc3nsnc23)c2ccccc12)NCCCn1ccnc1,Insoluble,,
O=C(CCCc1cn(S(=O)(=O)c2ccccc2)c2ccccc12)NCCCc1c[nH]cn1,,,pKa [2]: 7
N[C@@H](Cc1cn(S(=O)(=O)c2ccccc2)c2ccccc12)C(=O)NCCCn1ccnc1,,14.5 µM,
CS(=O)(=O)n1cc(CCCC(=O)NCCCn2ccnc2)c2ccccc21,,26.9 µM,
O=C(CCCc1cn(S(=O)(=O)c2ccc(F)cc2)c2ccccc12)NCCCn1ccnc1,Insoluble,,
O=C(CCc1cn(S(=O)(=O)c2ccccc2)c2ccccc12)NCCCn1ccnc1,,15.5 µM,
O=C(CCCc1cn(S(=O)(=O)c2cccnc2)c2ccccc12)NCCCn1ccnc1,,26.9 µM,
O=C(CCCc1cn(S(=O)(=O)c2cccc(F)c2)c2ccccc12)NCCCn1ccnc1,Insoluble,10.2 µM,
O=C(CCCC1C(=O)Nc2ccccc21)NCCCn1ccnc1 (stereo unspecified),,38.9 µM,
O=C(CCCc1cn(S(=O)(=O)c2ccc(-c3ccccc3)cc2)c2ccccc12)NCCCn1ccnc1,Insoluble,,
O=C(CCCc1cn(S(=O)(=O)c2ccccc2F)c2ccccc12)NCCCn1ccnc1,Insoluble,,
O=C(NCCCn1ccnc1)NCCc1cn(S(=O)(=O)c2ccccc2)c2ccccc12,,10.2 µM,
